The values below come from patent publication US20080182898A1, “Treatment of metabolic syndrome with norfluoxetine” (AMPLA Pharmaceuticals Inc., priority 2007, published 2008).

Sequence of CB1 receptor (P21554 whole entry): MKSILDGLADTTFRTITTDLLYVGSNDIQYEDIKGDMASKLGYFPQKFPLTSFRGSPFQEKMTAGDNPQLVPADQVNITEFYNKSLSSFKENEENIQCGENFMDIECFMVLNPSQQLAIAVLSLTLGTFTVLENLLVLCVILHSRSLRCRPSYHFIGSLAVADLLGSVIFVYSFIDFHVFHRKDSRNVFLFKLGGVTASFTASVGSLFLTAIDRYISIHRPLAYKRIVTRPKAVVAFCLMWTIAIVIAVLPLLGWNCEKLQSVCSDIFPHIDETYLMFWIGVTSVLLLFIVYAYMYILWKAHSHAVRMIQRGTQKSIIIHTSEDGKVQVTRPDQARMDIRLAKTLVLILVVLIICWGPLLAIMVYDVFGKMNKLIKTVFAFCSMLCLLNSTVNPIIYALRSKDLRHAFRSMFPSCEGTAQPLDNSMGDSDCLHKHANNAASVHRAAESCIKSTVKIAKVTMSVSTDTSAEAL

This assay has as its target CB1 receptor (Homo sapiens, UniProt P21554). Description: functional activity versus the CB1 receptor. The following applies: qualitative statement, no method or numbers given.
As for `CNCC[C@H](Oc1ccc(C(F)(F)F)cc1)c1ccccc1` [(S)-Fluoxetine], the “functional activity versus the CB1 receptor (mode of action)” value is on record as “inverse agonist”.

In the case of `CNCC[C@@H](Oc1ccc(C(F)(F)F)cc1)c1ccccc1` [(R)-fluoxetine], the “functional activity versus the CB1 receptor (mode of action)” value is listed as “antagonist”.

`NCCC(Oc1ccc(C(F)(F)F)cc1)c1ccccc1` (racemic) [racemate of norfluoxetine, 3-(4-trifluoromethylphenoxy)3-phenylpropylamine]: the “functional activity versus the CB1 receptor (mode of action)” value is given as “antagonist”.
